From US4777182A, “6-Amidino-2-naphthyl 4-guanidinobenzoate derivatives and pharmaceutical composition containing them” (Torii & Co., Ltd., priority 1984, dated 1988) come the findings set out here.

One may read the inhibition as the share of the control response that was lost under treatment. What is called LD50 is the dose expected to kill half of the subjects tested. A lower LD50 goes with greater toxicity.

One data set deals with Plasmin (Homo sapiens, UniProt P00747). Kind of data set: Anti-plasmin activity (inhibition of TAME hydrolysis). In kind it is biochemical.
The target of a further data set is T1, C1r (Homo sapiens, UniProt P00736).
T1 sequence (P00736 18-463 limits assumed): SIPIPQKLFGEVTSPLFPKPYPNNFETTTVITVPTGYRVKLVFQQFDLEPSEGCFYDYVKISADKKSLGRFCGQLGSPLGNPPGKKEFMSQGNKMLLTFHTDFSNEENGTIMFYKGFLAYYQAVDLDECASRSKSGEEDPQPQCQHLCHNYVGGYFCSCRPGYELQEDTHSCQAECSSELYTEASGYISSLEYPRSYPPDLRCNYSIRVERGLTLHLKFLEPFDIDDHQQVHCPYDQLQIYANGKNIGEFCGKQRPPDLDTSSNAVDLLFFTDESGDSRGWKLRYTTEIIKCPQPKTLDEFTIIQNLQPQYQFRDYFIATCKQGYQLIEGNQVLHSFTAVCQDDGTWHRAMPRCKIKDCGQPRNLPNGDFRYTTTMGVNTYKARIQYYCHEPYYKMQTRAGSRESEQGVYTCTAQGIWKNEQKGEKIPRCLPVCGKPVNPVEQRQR
T1 sequence (P00736 464-705 limits assumed): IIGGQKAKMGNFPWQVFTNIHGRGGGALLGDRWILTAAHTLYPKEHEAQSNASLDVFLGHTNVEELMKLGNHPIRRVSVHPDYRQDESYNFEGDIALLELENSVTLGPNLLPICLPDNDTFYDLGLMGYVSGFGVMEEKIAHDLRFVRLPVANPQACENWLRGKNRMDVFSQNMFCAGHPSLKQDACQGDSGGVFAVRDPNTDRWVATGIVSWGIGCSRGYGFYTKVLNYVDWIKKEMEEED
Kind of data set: Anti-C1r activity (inhibition of AAME hydrolysis). The class given is biochemical. To be noted: at 1×10^-5 M; read-out: percent inhibition, C1r (figure in parentheses). How it is done:
The anti-C1 esterase (C1r, C1s) activity was determined according to the method of Okamura et al. [K. Okamura, M. Muramatsu and B. Fujii, Biochem. Biophys. Acta, 295, 252-257 (1973)]. (2) The inhibition of complement mediated hemolysis was determined according to the method of Baker et al. [B. R. Baker and E. H. Erickson, J. Med. Chem., 12, 408-414 (1969)]. The figures in Table 2 have the following meanings: C1r: […]

The next data set deals with T2, C1s (Homo sapiens, UniProt P09871).
T2 sequence (P09871 16-437 limits assumed): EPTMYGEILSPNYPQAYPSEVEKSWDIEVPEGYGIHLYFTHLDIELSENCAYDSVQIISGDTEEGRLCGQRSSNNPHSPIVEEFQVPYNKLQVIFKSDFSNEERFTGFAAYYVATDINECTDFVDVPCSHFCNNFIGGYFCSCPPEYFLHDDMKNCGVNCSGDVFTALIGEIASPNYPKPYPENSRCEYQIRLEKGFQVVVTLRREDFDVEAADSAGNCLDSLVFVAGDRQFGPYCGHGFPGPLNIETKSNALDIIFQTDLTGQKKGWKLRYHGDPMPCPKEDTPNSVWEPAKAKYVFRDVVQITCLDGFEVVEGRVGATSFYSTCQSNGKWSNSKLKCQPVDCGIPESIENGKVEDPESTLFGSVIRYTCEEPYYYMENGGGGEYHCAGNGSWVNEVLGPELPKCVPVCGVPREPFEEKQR
T2 sequence (P09871 438-688 limits assumed): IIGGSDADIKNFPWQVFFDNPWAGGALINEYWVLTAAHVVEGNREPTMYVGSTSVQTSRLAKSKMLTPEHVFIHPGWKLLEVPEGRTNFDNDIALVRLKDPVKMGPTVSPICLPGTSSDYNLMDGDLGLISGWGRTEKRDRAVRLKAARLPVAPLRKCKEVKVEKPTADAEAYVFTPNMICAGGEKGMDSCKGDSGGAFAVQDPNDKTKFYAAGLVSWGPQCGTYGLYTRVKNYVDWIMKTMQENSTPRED
Kind of data set: Anti-C1s activity (inhibition of ATEE hydrolysis). The class given is biochemical. To be noted: read-out: ID50, C1s. On the procedure: The anti-C1 esterase (C1r, C1s) activity was determined according to the method of Okamura et al. [K. Okamura, M. Muramatsu and B. Fujii, Biochem. Biophys. Acta, 295, 252-257 (1973)]. (2) The inhibition of complement mediated hemolysis was determined according to the method of Baker et al. [B. R. Baker and E. H. Erickson, J. Med. Chem., 12, 408-414 (1969)]. The figures in Table 2 have the following meanings:
C1s: Molar concentration of the test compound which inhibits 50% of the ability of C1s to hydrolyse ATEE (acetyltyrosin ethyl ester) (ID50).

For the next data set, the system named is Kallikrein. Kind of data set: Anti-kallikrein activity (inhibition of TAME hydrolysis). The class given is biochemical. To be noted: read-out: ID50, Kallikrein.
Another data set concerns the target Thrombin (Homo sapiens, UniProt P00734). Kind of data set: biochemical. To be noted: TAME hydrolysis; read-out: ID50, Thrombin.
In a further data set the test system is Forssman shock. Kind of data set: Forssman shock. To be noted: guinea pig, 100 mg/kg orally before i.v. hemolysin, individual animals; for time elapsed until death: 100 mg/kg. The class given is in vivo. The source says:
Quite different from other animals, guinea pig has on the surface of its organs a specific antigen called Forssman antigen which specifically reacts with the antibody of sheep erythrocyte. Forssman shock is based on the above principle and is a shock caused by the administration of antibody of sheep erythrocyte to a guinea pig. The Forssman shock was investigated in detail by many researches and it was definitely shown that this shock is a model case where the complement plays the principal part and that the shock is associated with a classical pathway in which the complement system is activated progressively starting from C1. Since the participation of complement in autoimmune diseases has been established, the Forssman shock can be said to be useful means for testing a drug for autoimmune diseases. A drug effective for the treatment of Forssman shock is useful as a drug of autoimmune diseases.
The experiment was performed according to the method of I. G. Offerness et al. [Biochem. Pharmacol., 27 (14), 1873-1878 (1978)]. Male Hartley guinea pigs of about 350 g in body weight were used. Each guinea pig of the control group was administered intravenously with hemolysin (minimum dose to cause the shock) (commercial hemolysin, 5,000 U as assayed by the method of Ogata) and the time elapsed until death was observed. Each guinea pig of the treated group was administered intravenously with hemolysin after the animal was administered orally with compounds (100 mg/kg) and the time elapsed until death was observed.

For a further data set, the target named is T3, Trypsin (Bos taurus, UniProt P00760).
T3 sequence (P00760 24-246): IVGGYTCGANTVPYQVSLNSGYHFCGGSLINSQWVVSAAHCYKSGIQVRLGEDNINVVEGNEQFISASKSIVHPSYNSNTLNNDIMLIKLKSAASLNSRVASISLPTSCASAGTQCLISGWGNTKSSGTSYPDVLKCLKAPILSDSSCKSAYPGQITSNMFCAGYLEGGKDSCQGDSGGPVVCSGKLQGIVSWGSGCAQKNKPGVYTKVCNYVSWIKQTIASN
Kind of data set: Anti-trypsin activity (inhibition of TAME hydrolysis). To be noted: read-out: ID50, Trypsin. In kind it is biochemical.

The subject of data set [1] is complement mediated hemolysis. Put plainly: Inhibition of complement mediated hemolysis. In kind it is cell-based.
Excerpt: Therefore, when a known amount of complement admixed with a C1 esterase inhibitor is used, the hemolysis must be suppressed in proportion to the inhibitory activity.
Data set [2] is described as follows: Toxicity (median lethal dose). To be noted: in vivo, mouse.
The mark [3] stands for this setting: TAME hydrolysis, read-out: ID50, Plasmin.

Several values for one entry are separate records, joined by “and”; a condition that tells them apart may be missing. Identical values can stand only once. Like-named read-outs stand apart in the source and are kept apart here. Some results are limits rather than exact numbers.

Sequence of Plasmin (P00747 97-580 limits assumed, species assumed): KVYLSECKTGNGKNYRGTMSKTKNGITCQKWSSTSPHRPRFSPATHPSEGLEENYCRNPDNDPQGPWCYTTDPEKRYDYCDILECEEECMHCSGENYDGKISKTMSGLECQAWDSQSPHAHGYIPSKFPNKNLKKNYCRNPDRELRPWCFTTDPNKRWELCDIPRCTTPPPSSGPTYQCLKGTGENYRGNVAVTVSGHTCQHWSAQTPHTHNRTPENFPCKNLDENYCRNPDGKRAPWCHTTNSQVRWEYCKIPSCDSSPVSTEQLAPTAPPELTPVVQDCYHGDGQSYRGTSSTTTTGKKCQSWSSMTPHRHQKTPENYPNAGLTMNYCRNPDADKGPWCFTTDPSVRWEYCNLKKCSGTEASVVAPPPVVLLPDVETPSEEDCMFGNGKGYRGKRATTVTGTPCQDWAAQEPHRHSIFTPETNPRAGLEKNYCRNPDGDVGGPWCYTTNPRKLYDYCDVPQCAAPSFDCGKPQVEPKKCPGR
Sequence of Plasmin (P00747 581-810 limits assumed, species assumed): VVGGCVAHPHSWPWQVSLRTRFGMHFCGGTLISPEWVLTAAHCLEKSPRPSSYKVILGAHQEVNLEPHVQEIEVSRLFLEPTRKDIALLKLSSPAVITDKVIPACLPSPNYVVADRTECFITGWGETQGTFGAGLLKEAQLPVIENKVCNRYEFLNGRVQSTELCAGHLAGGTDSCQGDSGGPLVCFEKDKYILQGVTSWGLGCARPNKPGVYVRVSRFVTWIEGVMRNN

For the molecule `CN=C(NC)Nc1ccc(C(=O)Oc2ccc3cc(C(=N)N)ccc3c2)cc1` [Compound No. 1, 6-amidino-2-naphthyl 4-(2,3-dimethyl)guanidino-benzoate], the IC50 at Plasmin (setting [3]) amounted to 0.8 µM; on C1s it was 0.4 µM; in the data set with Kallikrein it was 0.7 µM; at Thrombin it was 9 µM; on Trypsin, 10 µM. For the same molecule, the inhibition at 10 µM on C1r came to 32%. Also, the “Survival (instead of time elapsed until death)” value in the data set with Forssman shock is listed as “Survival”. Further, in the data set with Forssman shock, the “time elapsed until death” value is 1291 s and 390 s and 504 s and 613 s and 404 s and 868 s. Besides, the “Inhibition of complement mediated hemolysis (%)” value (“Inhibition … (%)” below) in data set [1] (1 × 10^-5) is reported as 97%; in data set [1] (1 × 10^-6), 70%; in [1] (1 × 10^-7), 6%.
On to `N=C(N)c1ccc2cc(OC(=O)c3ccc(NC4=NCCN4)cc3)ccc2c1` [Compound No. 2, 6-amidino-2-naphthyl 4-(2-imidazolinyl)amino-benzoate], for which the IC50 worked out at 2 µM at Plasmin, 0.7 µM at C1s and 1 µM on Trypsin. Also, the LD50 in data set [2] (iv, I.V.) was 19 mg/kg; in [2] (po, P.O.), above 3000 mg/kg. The inhibition at 10 µM on C1r was determined as 35%. Further, the “time elapsed until death” value with Forssman shock is 1108 s and 1255 s and 980 s and 855 s. The “Inhibition … (%)” value in [1] (1 × 10^-5) is 100%; in [1] (1 × 10^-6), 91%; in data set [1] (1 × 10^-7), 29%.
As to `N=C(NCCOCc1ccccc1)Nc1ccc(C(=O)Oc2ccc3cc(C(=N)N)ccc3c2)cc1` [compound 18], the IC50 at Plasmin (setting [3]) came out at 0.6 µM; at C1s, 2 µM; with Kallikrein, 2 µM; on Thrombin, 5 µM; at Trypsin, 2 µM. Besides, the inhibition at 10 µM at C1r is 37%. Moreover, the results for the “Inhibition … (%)” value in [1] (1 × 10^-5), in data set [1] (1 × 10^-6) and in data set [1] (1 × 10^-7) were 100%, 100% and 46%, respectively.
